Results from patent US7999069B2, “EphB receptor-binding peptides” (Sanford-Burnham Medical Research Institute, priority 2005, dated 2011).
No end group written: not given here.

Columns and labels:
EphB1 = biological target: T1, EphB1 (Homo sapiens, UniProt P54762); assay: Peptide competition of phage binding to EphB1 ectodomain
T1 construct: panned on the ectodomains of EphB1, EphB2, or EphB4 fused to human Fc
T1 sequence (P54762 18-540 limits assumed): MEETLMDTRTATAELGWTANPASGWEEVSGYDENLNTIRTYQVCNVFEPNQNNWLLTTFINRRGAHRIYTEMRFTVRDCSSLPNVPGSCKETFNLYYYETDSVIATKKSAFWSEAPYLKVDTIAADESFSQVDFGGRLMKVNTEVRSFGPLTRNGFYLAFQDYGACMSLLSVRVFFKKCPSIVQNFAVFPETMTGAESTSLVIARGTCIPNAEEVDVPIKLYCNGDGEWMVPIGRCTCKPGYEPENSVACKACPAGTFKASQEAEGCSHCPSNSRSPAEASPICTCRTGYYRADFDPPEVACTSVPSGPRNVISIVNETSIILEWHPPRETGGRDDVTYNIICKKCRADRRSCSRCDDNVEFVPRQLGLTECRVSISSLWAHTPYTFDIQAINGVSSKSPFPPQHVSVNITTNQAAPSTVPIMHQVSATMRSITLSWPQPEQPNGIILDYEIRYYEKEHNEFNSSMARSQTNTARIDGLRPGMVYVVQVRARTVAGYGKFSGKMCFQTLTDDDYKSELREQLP
Procedure: To measure peptide competition of phage binding to EphB receptors, Ni-NTA wells coated with Eph ectodomain Fc were incubated for 30 min at room temperature with various peptide concentrations in binding buffer (100 μl/well). Concentrated stocks of phage clones diluted between 1:500 and 1:10,000 in binding buffer were then added to the wells for a 1 hr at room temperature. Wells were washed and bound phage were detected using the anti-M13 antibody. A biotinylated control peptide with sequence unrelated to the sequences of the Eph-binding peptides ([…], SEQ ID NO: 40) was used as a negative control in some of the experiments, as indicated in the figure legends.
[…]. The SNEW peptide at 25 μM inhibited EphB2 binding of most phage clones isolated by panning on EphB2 (FIGS. 2E and G). The only exceptions were the IHWP, DHRWV and WHWT clones. However, binding of these clones was inhibited by 50 μM SNEW peptide, particularly when the phage concentration was halved. […] Bound phage were detected using anti-M13 phage antibody coupled to HRP and phage binding in the presence of peptide was normalized to phage binding in the absence of peptide. Error bars indicate standard deviation from duplicate measurements, and were calculated taking into account propagation of errors.

EphB receptors = assay: Peptide pull-down of endogenous EphB receptors from lysates; assay type: binding; conditions: peptide on streptavidin beads; mouse brain or cultured cell lysates
Procedure: The ability of the peptides to bind in a stable manner, which is important for both targeting and competitive inhibition, was tested in pull-down experiments. For peptide pull-down experiments, cells in 60 cm plates at 70% confluency or adult mouse brain tissue were solubilized in pull-down buffer (50 mM HEPES pH 7.5, 150 mM NaCl, 10% glycerol, 1% Triton-X100, 5 mM KCl and 1 mM EDTA). Three μg of biotinylated peptide were incubated for 45-90 min with 5 μl streptavidin agarose beads (Sigma), unbound peptide was washed away, and the beads were incubated with the cell lysates for 45-90 min. Proteins bound to the beads were separated by SDS-polyacrylamide gel electrophoresis and probed by immunoblotting with EphB1, EphB2, or EphB4 antibodies. The EphB1 antibody (Santa Cruz) was detected with a secondary anti-goat IgG peroxidase-conjugated antibody (BioRad Laboratories). The EphB2 and EphB4 antibodies were affinity-purified polyclonal antibodies to GST fusion proteins containing approximately 100 amino acids from the carboxy-terminal tails of the EphB2 or EphB4 receptors (Noren, N. K. et al. 2004 PNAS USA 101:5583-5588; Holash, J. A. & Pasquale, E. B. 1995 Devel Biol 172:683-693) and were detected with a secondary anti-rabbit IgG peroxidase-conjugated antibody (Amersham Biosciences). […]

Inhibition of binding of the corresponding phage clone to EphB1 (EphB1; concentration-dependent): efficiently inhibited binding
Stable binding of EphB receptors in pull-down (EphB receptors): stably bind EphB receptors
Sequence: EWLSPNLAPSVR [SEQ ID NO 1]
Inhibition of EphB1 binding of phage clones isolated by panning on EphB1 (EphB1; 5 μM peptide): inhibited EphB1 binding of the phage clones isolated by panning on EphB1
